Measurements published in article PMC12348509, “Classical Paal-Knorr Cyclization for Synthesis of Pyrrole-Based Aryl Hydrazones and In Vitro/In Vivo Evaluation on Pharmacological Models of Parkinson’s Disease” (Molecules, 2025).

How the values were obtained:
rat brain mitochondria [1] = test: MDA production in brain mitochondria, substances applied alone; assay type: cell-based; conditions: 100 µM, vs untreated mitochondria
Method: To the mitochondria, 0.3 mL of 0.2% thiobarbituric acid and 0.25 mL of sulfuric acid (0.05 M) were added, and the mixture was boiled for 30 min. After boiling, the tubes were placed on ice, and 0.4 mL of n-butanol was added to each tube, which was then centrifuged at 3500× g for 10 min. The amount of MDA was determined spectrophotometrically at 532 nm.

rat brain mitochondria [2] = test: GSH level in brain mitochondria, substances applied alone; conditions: 100 µM, vs untreated mitochondria
rat brain microsomes [3] = test: MDA production in brain microsomes, substances applied alone; assay type: cell-based; conditions: 100 µM, vs untreated microsomes
Method: The brain was homogenized in nine volumes of 0.1 M Tris buffer containing 0.1 mM dithiothreitol, 0.1 mM phenylmethylsulfonyl fluoride, 0.2 mM EDTA, 1.15% KCl, and 20% (v/v) glycerol (pH 7.4). The resulting homogenate was centrifuged twice at 17,000× g for 30 min. The supernatants from the two centrifugations were pooled and centrifuged twice at 100,000× g for 1 h. The pellet was then frozen in 0.1 M Tris buffer.

[4] = target: T1, human recombinant MAOA enzyme (hMAOA) (Homo sapiens, UniProt P21397); test: Human recombinant MAOA enzyme activity (Amplex Red, fluorimetric); assay type: biochemical; conditions: for IC50: read-out: IC50 (EC50), (µM ± SD) hMAOA
T1 construct: purchased
T1 sequence (P21397 1-527): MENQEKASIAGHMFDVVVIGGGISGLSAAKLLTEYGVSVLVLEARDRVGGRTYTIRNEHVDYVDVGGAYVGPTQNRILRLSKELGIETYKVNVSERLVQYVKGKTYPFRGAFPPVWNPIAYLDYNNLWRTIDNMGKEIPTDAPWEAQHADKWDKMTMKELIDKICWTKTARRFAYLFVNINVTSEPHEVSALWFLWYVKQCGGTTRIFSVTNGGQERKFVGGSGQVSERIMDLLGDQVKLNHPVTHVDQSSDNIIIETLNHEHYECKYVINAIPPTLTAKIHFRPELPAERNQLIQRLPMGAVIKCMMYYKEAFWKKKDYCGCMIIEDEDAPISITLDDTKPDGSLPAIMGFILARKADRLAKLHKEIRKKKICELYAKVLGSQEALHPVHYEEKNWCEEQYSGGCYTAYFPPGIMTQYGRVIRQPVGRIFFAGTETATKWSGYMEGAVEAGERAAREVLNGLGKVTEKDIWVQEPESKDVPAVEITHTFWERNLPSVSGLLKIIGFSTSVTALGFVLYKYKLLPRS
Method: (§1) Working solutions of the test substances, reagents, and human recombinant MAOA/B enzyme (hMAOA/B) were prepared in a reaction buffer according to the manufacturer’s instructions. The substances were applied at a final concentration of 1 µM. The substances, together with hMAOA/B, were placed in a 96-well plate (eight samples for each substance), and the plate was placed in an incubator for 30 min (in the dark, at 37 °C). The activity of recombinant human MAOA/B was determined fluorimetrically at two wavelengths (570 nm and 690 nm) with fluorimetric readings performed in a Synergy 2 Microplate Reader. Tyramine hydrochloride was used as the substrate. The activity was determined by detecting H2O2 production. This production is reported by binding to horseradish peroxidase using N-acetyl-3,7-dihydroxyphenoxazine (AmplexRed, Thermo Fisher Scientific, Waltham, MA, USA).

[5] = target: T2, human recombinant MAOB enzyme (hMAOB) (Homo sapiens, UniProt P27338); test: Human recombinant MAOB enzyme activity (Amplex Red, fluorimetric); assay type: biochemical; conditions: for IC50: read-out: IC50 (EC50), (µM ± SD) hMAOB; for inhibition at 1 µM: read-out: hMAOB inhibitory effect (decrease of enzyme activity)
T2 construct: purchased
T2 sequence (P27338 1-520): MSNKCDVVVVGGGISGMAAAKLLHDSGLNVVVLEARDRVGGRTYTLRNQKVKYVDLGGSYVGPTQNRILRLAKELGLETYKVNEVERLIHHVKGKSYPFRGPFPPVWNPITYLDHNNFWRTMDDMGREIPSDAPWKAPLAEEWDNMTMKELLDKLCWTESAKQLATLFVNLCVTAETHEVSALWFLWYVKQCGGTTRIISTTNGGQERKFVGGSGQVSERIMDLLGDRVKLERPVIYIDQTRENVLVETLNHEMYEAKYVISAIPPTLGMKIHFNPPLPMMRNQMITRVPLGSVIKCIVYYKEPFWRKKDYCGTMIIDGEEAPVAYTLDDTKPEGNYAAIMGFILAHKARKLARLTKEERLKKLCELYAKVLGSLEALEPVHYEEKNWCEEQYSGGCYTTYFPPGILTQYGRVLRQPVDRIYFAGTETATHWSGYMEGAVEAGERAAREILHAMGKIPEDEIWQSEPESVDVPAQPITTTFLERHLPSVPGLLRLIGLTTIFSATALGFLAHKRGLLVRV
Method: as §1

[6] = system: Rotenone-induced model of Parkinsonism in mice; test: Rotenone-induced model of Parkinsonism in mice, brain histopathology (H&E); assay type: in vivo
Method: The histological morphology of the mouse brains, mainly the areas of the […] and cerebellum, was examined microscopically.
The samples from mouse brains were fixed in 10% buffered neutral formalin solution. The fixed materials were dehydrated in ascending grades of alcohol: 50°, 60°, 70°, 80°, 90°, 96°, and absolute alcohol. After dehydration, the samples were cleared with xylene and embedded in paraffin blocks. Sections with a thickness of 5 μm were prepared using a rotary microtome. The sections were attached to slides using histological glue, processed with xylene, rehydrated using a descending alcohol row–absolute alcohol, 96°, 90°, 80°, 70°, 60°, and 50°, and finally stained with Hematoxylin-Eosin [57]. Microscopic examination and photography were performed using a Levenhuk D740T light microscope with an integrated camera.

rat brain mitochondria [7] = conditions: 100 µM combined with t-BuOOH
MAOB = system: MAOB; design: method as in PMID 36500572; conditions: 1 μmol; cited from earlier work
rat brain microsomes [8] = conditions: 100 µM combined with Fe2+/AA
[9] = 150 µM, vs untreated synaptosomes
[10] = 100 µM with 6-OHDA 150 µM, compared to the toxic agent

CCOC(=O)c1cc(-c2ccc(Br)cc2)n(CCCC(=O)NN)c1C [compound 15, Ethyl 5-(4-bromophenyl)-1-(4-hydrazinyl-4-oxobutyl)-2-methyl-1H-pyrrole-3-carboxylate]
increase of MDA production in brain mitochondria vs control (rat brain mitochondria [1]): 73% | decrease of GSH level in brain mitochondria vs control (rat brain mitochondria [2]): 25%

CCOC(=O)c1cc(-c2ccc(Br)cc2)n(CCCC(=O)N/N=C/c2ccc(N(C)C)cc2)c1C [15f, (E)-Ethyl 5-(4-bromophenyl)-1-(4-(2-(4-(dimethylamio)benzylidene)hydrazinyl)-4-oxobutyl)-2-methyl-1H-pyrrole-3-carboxylate]
increase of MDA production in brain mitochondria vs control (rat brain mitochondria [1]): 69% | increase of MDA production in brain microsomes vs control (rat brain microsomes [3]): 67% | hMAOA inhibitory effect (decrease of enzyme activity) ([4]; 1 µM, vs control (pure hMAOA)): 40% | IC50 [4]: 0.821 µM | SI: hMAOB selectivity index = IC50(hMAOA)/IC50(hMAOB) [5]: 1.16 | hMAOB inhibitory effect (decrease of enzyme activity) ([5]; 1 µM, vs control (pure hMAOB)): 45% | IC50 [5]: 0.71 µM | decrease of GSH level in brain mitochondria vs control (rat brain mitochondria [2]): 15%

CCOC(=O)c1cc(-c2ccc(Br)cc2)n(CCCC(=O)N/N=C/c2cccc(C=O)c2)c1C [15g, (E)-Ethyl 5-(4-bromophenyl)-1-(4-(2-(3-formylbenzylidene)hydrazinyl)-4-oxobutyl)-2-methyl-1H-pyrrole-3-carboxylate]
increase of MDA production in brain mitochondria vs control (rat brain mitochondria [1]): 143% | increase of MDA production in brain microsomes vs control (rat brain microsomes [3]): 158% | decrease of GSH level in brain mitochondria vs control (rat brain mitochondria [2]): 20%

C=C(C)[C@H]1Cc2c(ccc3c2O[C@@H]2COc4cc(OC)c(OC)cc4[C@@H]2C3=O)O1 [rotenone, reference compound]
brain histology, rotenone alone ([6]; cerebral cortex of mice treated with rotenone): distinct degenerative-necrotic changes

NCCc1cc(O)c(O)cc1O [6-OHDA, 6-hydroxydopamine, reference compound]
decrease of GSH level in synaptosomes by the toxic agent alone (rat brain synaptosomes; [9]): 50% | decrease of synaptosomal viability by the toxic agent alone (rat brain synaptosomes; [9]): 50%

CCOC(=O)c1cc(-c2ccc(Br)cc2)n(CCCC(=O)N/N=C/c2ccccc2F)c1C [15c, (E)-Ethyl 5-(4-bromophenyl)-1-(4-(2-(2-fluorobenzylidene)hydrazinyl)-4-oxobutyl)-2-methyl-1H-pyrrole-3-carboxylate]
increase of MDA production in brain mitochondria vs control (rat brain mitochondria [1]): 110% | increase of MDA production in brain microsomes vs control (rat brain microsomes [3]): 132% | decrease of GSH level in brain mitochondria vs control (rat brain mitochondria [2]): 25%

CCOC(=O)c1cc(-c2ccc(Br)cc2)n(CCCC(=O)N/N=C/c2ccccc2O)c1C [15b, (E)-Ethyl 5-(4-bromophenyl)-1-(4-(2-(2-hydroxybenzylidene)hydrazinyl)-4-oxobutyl)-2-methyl-1H-pyrrole-3-carboxylate]
increase of MDA production in brain mitochondria vs control (rat brain mitochondria [1]): 99% | increase of MDA production in brain microsomes vs control (rat brain microsomes [3]): 121% | decrease of GSH level in brain mitochondria vs control (rat brain mitochondria [2]): 25%

CCOC(=O)c1cc(-c2ccc(Br)cc2)n(CCCC(=O)N/N=C/c2cccc(F)c2)c1C [15d, (E)-Ethyl 5-(4-bromophenyl)-1-(4-(2-(3-fluorobenzylidene)hydrazinyl)-4-oxobutyl)-2-methyl-1H-pyrrole-3-carboxylate]
increase of MDA production in brain mitochondria vs control (rat brain mitochondria [1]): 57% | increase of MDA production in brain microsomes vs control (rat brain microsomes [3]): 63% | IC50 [4]: > 200 µM | SI: hMAOB selectivity index = IC50(hMAOA)/IC50(hMAOB) [5]: >471 | inhibition at 1 µM ([5]; 1 µM, vs control (pure hMAOB)): 60% | IC50 [5]: 0.425 µM | brain histology, in combination with rotenone ([6]; mice treated with rotenone plus 15d, light microscopy): preserved histoarchitectonics | brain histology, treated alone ([6]; mouse, in vivo): no microscopically visible changes | decrease of GSH level in brain mitochondria vs control (rat brain mitochondria [2]): 10% | preservation of GSH level vs 6-OHDA (rat brain synaptosomes; [10]): 20% | preservation of synaptosomal viability vs 6-OHDA (rat brain synaptosomes; [10]): 15% | neuroprotective effect vs t-BuOOH (GSH level and MDA production) (rat brain mitochondria [7]): most pronounced neuroprotection

CCOC(=O)c1cc(-c2ccc(Br)cc2)n(CC(=O)NN)c1C [compound 11]
MAOB inhibition (MAOB): 26%

CCOC(=O)c1cc(-c2ccc(Br)cc2)n(CCCC(=O)N/N=C/c2ccccc2)c1C [15a, (E)-Ethyl 1-(4-(2-benzylidenehydrazinyl)-4-oxobutyl)-5-(4-bromophenyl)-2-methyl-1H-pyrrole-3-carboxylate]
increase of MDA production in brain mitochondria vs control (rat brain mitochondria [1]): 59% | increase of MDA production in brain microsomes vs control (rat brain microsomes [3]): 52% | IC50 [4]: > 200 µM | SI: hMAOB selectivity index = IC50(hMAOA)/IC50(hMAOB) [5]: >289 | inhibition at 1 µM ([5]; 1 µM, vs control (pure hMAOB)): 50% | IC50 [5]: 0.692 µM | decrease of GSH level in brain mitochondria vs control (rat brain mitochondria [2]): 15% | antioxidant effect vs Fe2+/AA (MDA production) (rat brain microsomes [8]): most prominent effect on MDA production

CCOC(=O)c1cc(-c2ccc(Br)cc2)n(CCCC(=O)N/N=C/c2ccc(OC)cc2)c1C [15e, (E)-Ethyl 5-(4-bromophenyl)-1-(4-(2-(4-methoxybenzylidene)hydrazinyl)-4-oxobutyl)-2-methyl-1H-pyrrole-3-carboxylate]
increase of MDA production in brain mitochondria vs control (rat brain mitochondria [1]): 119% | increase of MDA production in brain microsomes vs control (rat brain microsomes [3]): 149% | decrease of GSH level in brain mitochondria vs control (rat brain mitochondria [2]): 20%

CCOC(=O)c1cc(-c2ccc(Br)cc2)n(CCCC(=O)O)c1C [compound 13, 4-(5-(4-Bromophenyl)-3-(ethoxycarbonyl)-2-methyl-1H-pyrrole-1-yl)butanoic acid]
increase of MDA production in brain mitochondria vs control (rat brain mitochondria [1]): 79% | increase of MDA production in brain microsomes vs control (rat brain microsomes [3]): 93% | decrease of GSH level in brain mitochondria vs control (rat brain mitochondria [2]): 15%

CCOC(=O)c1cc(-c2ccc(Br)cc2)n(CCC(=O)NN)c1C [compound 12]
MAOB inhibition (MAOB): 50%
